# From patent publication US10556865B2, “Synergistic herbicidal composition containing certain pyridine or pyrimidine carboxylic acids and certain cereal and rice herbicides” (Dow AgroSciences, LLC, priority 2007, dated 2020)
# Values joined by “and” are separate entries in the source; they are usually repeats but may differ in a detail not shown here. Equal values may be shown once.
# What was measured:
# Assay type in all cases: in vivo
# [1] = system: Canada thistle (Cirsium arvense L; CIRAR); test: Postemergence herbicidal activity of mixtures in cereal crops (greenhouse, visual injury); details: 3.75 g/ha
# Outline: (§1)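 Weeds grown in greenhouse (~14 h photoperiod, ~18/17 °C day/night) to second–third true leaf stage, sprayed postemergence with compound and second cereal herbicide alone or combined; solvent-blank controls. Injury scored visually after 20-22 days, 0–100% (complete kill); expected mixture activity = A+B−(A×B/100).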
# [2] = system: blackgrass (Alopecurus myosuroides L; ALOMY); test: Postemergence herbicidal activity of mixtures in cereal crops (greenhouse, visual injury 0-100 percent after 20-22 days); details: 2.5 g/ha
# Method: (§2) Seeds of the desired test plant species were planted in Sun Gro MetroMix® 306 planting mixture, which typically has a pH of 6.0 to 6.8 and an organic matter content of about 30 percent, in plastic pots with a surface area of 103.2 square centimeters (cm^2). […] The plants were grown for 7-36 days in a greenhouse with an approximate 14 hour photoperiod which was maintained at about 18° C. during the day and 17° C. during the night. Nutrients and water were added on a regular basis and supplemental lighting was provided with overhead metal halide 1000-Watt lamps as necessary. The plants were employed for testing when they reached the second or third true leaf stage.
# (§3) Treatments consisted of compound (as listed in Tables 1 through 64) and a second cereal herbicide alone and in combination. […] The concentrated stock solutions were diluted to 1.5 mg ai/mL with the addition of 2 volumes of an aqueous mixture containing acetone, water, isopropyl alcohol, DMSO, Agri-dex crop oil concentrate, and Triton® X-77 surfactant in a 64.7:26.0:6.7:2.0:0.7:0.01 v/v ratio. A dilution solution was prepared by mixing 1 volume of 97:3 v/v acetone/DMSO and 2 volumes of an aqueous mixture containing acetone, water, isopropyl alcohol, DMSO, Agri-dex crop oil concentrate, and Triton® X-77 surfactant in a 64.7:26.0:6.7:2.0:0.7:0.01 v/v ratio. Compound requirements are based upon a 12 mL application volume at a rate of 187 liters per hectare (L/ha). […] Formulated compounds were applied to the plant material with an overhead Mandel track sprayer equipped with 8002E nozzles calibrated to deliver 187 L/ha over an application area of 0.503 square meters (m^2) at a spray height of 18 inches […] above average plant canopy. Control plants were sprayed in the same manner with the solvent blank.
# (§4) The treated plants and control plants were placed in a greenhouse as described above and watered by sub-irrigation to prevent wash-off of the test compounds. After 20-22 days, the condition of the test plants as compared with that of the control plants was determined visually and scored on a scale of 0 to 100 percent where 0 corresponds to no injury and 100 corresponds to complete kill.
# (§5) Colby's equation was used to determine the herbicidal effects expected from the mixtures (Colby, S. R. 1967. Calculation of the synergistic and antagonistic response of herbicide combinations. Weeds 15:20-22.).
# (§6) The following equation was used to calculate the expected activity of mixtures containing two active ingredients, A and B: Expected=A+B−(A×B/100)
# [3] = system: windgrass (Apera spica-venti L; APESV); test: Postemergence herbicidal activity of mixtures in cereal crops (greenhouse, visual injury); details: Apera spica-venti, post-emergence, 2.5 g/ha, Table 14; read-out: APESV Ob
# Method: as §2, §3, §4, §5, §6
# [4] = system: wild oats (Avena fatua L; AVEFA); test: as above; details: 2.5 g/ha, Table 14
# Method: as §2, §3, §4, §5, §6
# [5] = system: Italian ryegrass (Lolium multiflorum L; LOLMU); test: as above; details: 2.5 g/ha, Table 14
# Outline: (§7)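 Seedlings were raised 7–36 days to the second or third true leaf, treated overhead at 187 L/ha with Compound A or B and a second cereal herbicide, singly or in combination, then sub-irrigated in the greenhouse. After 20–22 days injury was rated visually against blank-treated controls (0–100%), with Colby's equation giving expected values.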
# [6] = system: green foxtail (Setaria viridis L; SETVI); test: as above; details: 2.5 g/ha, Table 7
# Outline: as §7
# [7] = system: Ischaemum rugosum SALISB. (ISCRU); test: Postemergence herbicidal mixtures for weed control in direct seeded rice (greenhouse, visual % injury); details: ISCRU
# [8] = system: Cyperus esculentus L. (CYPES); test: as above; details: CYPES
# [9] = system: Scirpus maritimus L. (SCPMA); test: as above; details: for % Injury Ob: SCPMA
# [10] = system: Polygonum pensylvanicum L. (POLPY); test: as above; details: for % Injury Ob: POLPY
# [11] = system: Fimbristylis miliacea (L.) VAHL (FIMMI); test: as above; details: for % Injury Ob: FIMMI
# Cyperus iria L. (CYPIR) = test: as above; details: CYPIR
# [12] = system: Brachiaria platyphylla (BRISEB.) NASH (BRAPP); test: as above
# Cyperus species (CYPSS) = test: Herbicidal mixtures for weed control in transplanted paddy rice (in-water application, visual % injury); details: CYPES = Cyperus esculentus
# Method: (§8) Weed seeds or nutlets of the desired test plant species were planted in puddled soil (mud) prepared by mixing a non-sterilized mineral soil (28 percent silt, 18 percent clay, and 54 percent sand, with a pH of about 7.3 to 7.8 and an organic matter content of about 1.0 percent) and water at a ratio of 100 kilograms (kg) of soil to 19 L of water. The prepared mud was dispensed in 250 mL aliquots into 480 mL non-perforated plastic pots with a surface area of 91.6 square centimeters leaving a headspace of 3 centimeters in each pot. Rice seeds were planted in Sun Gro MetroMix® 306 planting mixture, which typically has a pH of 6.0 to 6.8 and an organic matter content of about 30 percent, in plastic plug trays. Seedlings at the second or third leaf stage of growth were transplanted into 650 mL of mud contained in 960 mL non-perforated plastic pots with a surface area of 91.6 cm^2 4 days prior to herbicide application. The paddy was created by filling the 3 centimeter headspace of the pots with water. When required to ensure good germination and healthy plants, a fungicide treatment and/or other chemical or physical treatment was applied. The plants were grown for 4-14 days in a greenhouse with an approximate 14 hr photoperiod which was maintained at about 29° C. during the day and 26° C. during the night. Nutrients were added as Osmocote (17:6:10, N:P:K+minor nutrients) at 2 g per cup. Water was added on a regular basis to maintain the paddy flood, and supplemental lighting was provided with overhead metal halide 1000-Watt lamps as necessary. The plants were employed for testing when they reached the second or third true leaf stage.
# (§9) Treatments consisted of esters or salts of compound A, compound C, or compound D and various herbicidal components alone and in combination. For technical grade compounds, a weighed amount, determined by the highest rate to be tested, was placed in an individual 120 mL glass vial and was dissolved in 20 mL of acetone to obtain concentrated stock solutions. […] The concentrated stock solutions obtained were diluted with 20 mL of an aqueous mixture containing 2.5% Agri-dex crop oil concentrate (v/v). For formulated compounds, a measured amount, determined by the highest rate to be tested, was placed in an individual 120 mL glass vial and was dissolved in 20 mL of 2.5% (v/v) Agri-dex crop oil concentrate to obtain concentrated stock solutions. The concentrated stock solutions obtained were diluted with 20 mL of acetone. Applications were made by injecting an appropriate amount of the stock solution into the aqueous layer of the paddy. Control plants were treated in the same manner with the solvent blank. All treated plant material received the same concentration of acetone and crop oil concentrate.
# (§10) Forms of compounds A, C, and D were applied on an acid equivalent basis. Other herbicidal components were applied on an active ingredient basis and included acetolactate synthase (ALS)-inhibiting herbicides penoxsulam (triazolopyrimidine chemical class) applied as Grasp SC, […] (sulfonylurea chemical class) applied as Sirius G, and bensulfuron-methyl (sulfonylurea chemical class) applied as Londax; acetyl CoA carboxylase (ACCase) inhibiting herbicides cyhalofop-butyl applied as Clincher G and fenoxaprop-p-ethyl applied as Ricestar HT; auxinic herbicide quinclorac applied as Facet 75 DF; phytoene desaturase inhibiting herbicide norflurazon; and p-hydroxyphenylpyruvate dioxygenase (HPPD) inhibiting herbicide sulcotrione applied as Mikado.
# (§11) The treated plants and control plants were placed in a greenhouse as described above and water was added as needed to maintain a paddy flood. After 3 weeks the condition of the test plants as compared with that of the untreated plants was determined visually and scored on a scale of 0 to 100 percent where 0 corresponds to no injury and 100 corresponds to complete kill.
# [13] = system: wild pansy (Viola tricolor L; VIOTR); test: Postemergence herbicidal activity of mixtures in cereal crops (greenhouse, visual injury); details: 70 g/ha alone
# Outline: as §1
# [14] = system: bird's-eye speedwell (Veronica persica L; VERPE); test: as above; details: 70 g/ha alone
# Outline: as §1
# [15] = system: lady's-thumb (Polygonum persicaria L; POLPE); test: as above; details: 70 g/ha alone
# Outline: as §7
# [16] = system: chickweed (Stellaria media L; STEME); test: as above; details: 70 g/ha alone
# Outline: as §7
# [17] = system: wild buckwheat (Polygonum convolvulus L; POLCO); test: as above; details: 70 g/ha alone
# Outline: as §7
# [18] = system: Fimbristylis miliacea (L.) VAHL (FIMMI); test: Herbicidal mixtures for weed control in transplanted paddy rice (in-water application, visual % injury); details: 35 g/ha alone
# Method: as §8, with “When required to ensure good germination and healthy plants, a fungicide treatment and/or other chemical or physical treatment was applied.” left out
# as §9, §10, §11
# Scirpus species (SCPSS) = test: as above; details: SCPJU; 35 g/ha alone
# Method: as §8, with “When required to ensure good germination and healthy plants, a fungicide treatment and/or other chemical or physical treatment was applied.” left out
# as §9, §10, §11
smiles,measurement,setting,value
"COc1nc(C)nc(NC(=O)NS(=O)(=O)c2cc(I)ccc2C(=O)O)n1 [Iodosulfuron, 4-iodo-2-[[[[(4-methoxy-6-methyl-1,3,5-triazin-2-yl)amino]carbonyl]amino]sulfonyl]benzoic acid, reference compound]",CIRAR Ob,[1],50%
same,ALOMY Ob,[2]; Table 7,50%
same,ALOMY Ob,[2]; Table 14,50%
same,pest or weed control at 2.5 g/ha,[3],68%
same,AVEFA Ob,[4],35%
same,LOLMU Ob,[5],53%
same,SETVI Ob,[6],0%
C=CCOC(=O)c1nc(-c2ccc(Cl)c(OC)c2F)cc(N)c1Cl [Compound A Allyl],% Injury Ob,[7]; 8.75 g/ha alone,10%
same,% Injury Ob,[7]; 17.5 g/ha alone,40%
same,% Injury Ob,[8]; 17.5 g/ha alone,50%
same,% Injury Ob,[8]; 35 g/ha alone,95%
same,% Injury Ob,[9]; 17.5 g/ha alone,10%
same,% Injury Ob,[9]; 35 g/ha alone,20%
same,% Injury SCPMA Ob,[9]; alone 17.5 g/ha,0%
same,% Injury Ob,[10]; 17.5 g/ha alone,90%
same,% Injury Ob,[10]; 35 g/ha alone,70%
same,% Injury POLPY Ob,[10]; alone 17.5 g/ha,70%
same,% Injury Ob,[11]; 8.75 g/ha alone,0%
same,% Injury Ob,[11]; 35 g/ha alone,60%
same,% Injury FIMMI Ob,[11]; alone 17.5 g/ha,40%
same,% Injury Ob,Cyperus iria L. (CYPIR); 17.5 g/ha alone,35%
same,% Injury Ob,Cyperus iria L. (CYPIR); 35 g/ha alone,85%
same,% Injury Ob,[12]; 4.38 g/ha alone,80%
same,% Injury Ob,[12]; 8.75 g/ha alone,60% and 80% and 100%
same,% Injury Ob,[12]; 17.5 g/ha alone,99%
CCCCC(CC)COC(=O)COc1ccc(Cl)cc1C (stereo not drawn) [MCPA EHE],% Injury Ob,[7]; 70 g/ha alone,0%
same,% Injury Ob,[7]; 140 g/ha alone,0%
same,% Injury Ob,[11]; 70 g/ha alone,0%
same,% Injury Ob,[11]; 140 g/ha alone,0%
same,% Injury Ob,[12]; 70 g/ha alone,0%
same,% Injury Ob,[12]; 140 g/ha alone,0%
CNc1cnn(-c2cccc(C(F)(F)F)c2)c(=O)c1Cl [Norflurazon],% Injury Ob,[8]; 560 g/ha alone,0%
same,% Injury Ob,[9]; 560 g/ha alone,60%
same,% Injury CYPES Ob,Cyperus species (CYPSS); Norflurazon 70 g/ha alone (Compound A Methyl half),0%
same,% Injury CYPES Ob,Cyperus species (CYPSS); Norflurazon 70 g/ha alone (Compound A TEA half),0%
same,% Injury Ob,[11]; 560 g/ha alone,0%
same,% Injury Ob,Cyperus iria L. (CYPIR); 560 g/ha alone,0%
same,% Injury Ob,[12]; 70 g/ha alone,0%
Cc1cc(Cl)ccc1OCC(=O)O [MCPA],VIOTR Ob,[13],17%
same,VERPE Ob,[14],10%
same,POLPE Ob,[15],23%
same,STEME Ob,[16],7%
same,POLCO Ob,[17],7%
CCOC(=O)[C@@H](C)Oc1ccc(Oc2nc3ccc(Cl)cc3o2)cc1 [Fenoxaprop-p-ethyl],% Injury SCPMA Ob,[9]; alone 35 g/ha,0%
same,% Injury Ob,[18],0%
same,% Injury Ob,Scirpus species (SCPSS),0%
same,% Injury POLPY Ob,[10]; alone 35 g/ha,0%
same,% Injury FIMMI Ob,[11]; alone 35 g/ha,0%
